Assay [1] relates to Aspergillus niger. Kind of assay: Antifungal activity against Aspergillus niger ATCC 16404 at 4 ug/ml by broth dilution method. In kind it is functional, organism-based.
The test system of assay [2] is Candida tropicalis. Kind of assay: Antifungal activity against Candida tropicalis ATCC 750 by broth dilution method. Format: functional. For orientation: Dilution methods test growth across graded concentrations, often in twofold steps.
The subject of assay [3] is Cryptococcus neoformans. Kind of assay: Antifungal activity against Cryptococcus neoformans ATCC 34664 at 4 ug/ml by broth dilution method. In kind it is functional, organism-based.
Assay [4] relates to Nakaseomyces glabratus. Kind of assay: Antifungal activity against Candida glabrata ATCC 90030 by broth dilution method. Format: functional.
For assay [5], the system named is Candida albicans. In words: Antifungal activity against Candida albicans ATCC 24433 by broth dilution method. In kind it is functional.
The subject of assay [6] is Fusarium proliferatum. In words: Antifungal activity against Fusarium proliferatum ATCC 10052 at 4 ug/ml by broth dilution method. In kind it is functional, organism-based.
The test system of assay [7] is Aspergillus fumigatus. Kind of assay: Antifungal activity against Aspergillus fumigatus ATCC 46645 at 4 ug/ml by broth dilution method. In kind it is functional, organism-based.
Assay [8] deals with Pichia kudriavzevii. Kind of assay: Antifungal activity against Candida krusei ATCC 6258 at 4 ug/ml by broth dilution method. In kind it is functional, organism-based.
The subject of assay [9] is Cryptococcus neoformans. In words: Antifungal activity against Cryptococcus neoformans ATCC 34664 by broth dilution method. In kind it is functional.
Assay [10] has as its system Aspergillus niger. Kind of assay: Antifungal activity against Aspergillus niger ATCC 16404 at 8 ug/ml by broth dilution method. Format: functional, organism-based.
Assay [11] concerns Pichia kudriavzevii. Kind of assay: Antifungal activity against Candida krusei ATCC 6258 by broth dilution method. In kind it is functional.
For assay [12], the system named is Fusarium proliferatum. In words: Antifungal activity against Fusarium proliferatum ATCC 10052 at 8 ug/ml by broth dilution method. In kind it is functional, organism-based.
The test system of assay [13] is Aspergillus fumigatus. In words: Antifungal activity against Aspergillus fumigatus ATCC 46645 at 8 ug/ml by broth dilution method. In kind it is functional, organism-based.
The test system of assay [14] is Fusarium proliferatum. In words: Antifungal activity against Fusarium proliferatum ATCC 10052 at 128 ug/ml by broth dilution method. In kind it is functional, organism-based.
Assay [15] has as its system Aspergillus niger. In words: Antifungal activity against Aspergillus niger ATCC 16404 at 128 ug/ml by broth dilution method. In kind it is functional, organism-based.
Assay [16] concerns Aspergillus fumigatus. In words: Antifungal activity against Aspergillus fumigatus ATCC 46645 at 128 ug/ml by broth dilution method. In kind it is functional, organism-based.

For nine molecules, Activity and MIC50 results are on record in ChEMBL document CHEMBL1817568, “Novel hybrids of fluconazole and furanones: design, synthesis and antifungal activity” (2011).

Structures are written as SMILES. In brackets after ≈: the same amount, converted by molar mass. Activity calls are given as the source filed them. No cut-off for these calls is given here.

As to `O=C1OCC(c2ccccc2)=C1c1ccc(OCC(O)(Cn2cncn2)c2ccc(F)cc2F)cc1` (racemic), the outcome in assay [1], in [3], in assay [6], in assay [7] and in assay [8] was inactive. The MIC50 is 2 µg/mL (≈ 4.09 µM) in assay [2], 0.5 µg/mL (≈ 1.02 µM) in assay [4] and 0.5 µg/mL (≈ 1.02 µM) in assay [5].

Consider `Cc1ccc(C2=C(c3ccc(OCC(O)(Cn4cncn4)c4ccc(F)cc4F)cc3)C(=O)OC2)cc1` (racemic), for which the outcome in assay [1], in [6], in assay [7] and in [8] was inactive. The MIC50 was 2 µg/mL (≈ 3.97 µM) in assay [9], 2 µg/mL (≈ 3.97 µM) in [2], 1 µg/mL (≈ 1.99 µM) in assay [4] and 0.5 µg/mL (≈ 0.993 µM) in assay [5].

Regarding `O=C1OCC(c2ccc(F)cc2)=C1c1ccc(OCC(O)(Cn2cncn2)c2ccc(F)cc2F)cc1` (racemic), the MIC50 amounted to 1 µg/mL (≈ 1.97 µM) in assay [9]; 1 µg/mL (≈ 1.97 µM) in assay [2]; 8 µg/mL (≈ 15.8 µM) in assay [11]; 0.5 µg/mL (≈ 0.985 µM) in assay [4]; 0.25 µg/mL (≈ 0.493 µM) in assay [5]. Moreover, the outcome in assay [10], in [12] and in assay [13] was inactive.

As for `O=C1OCC(c2ccc(F)cc2F)=C1c1ccc(OCC(O)(Cn2cncn2)c2ccc(F)cc2F)cc1` (racemic), the MIC50 came out at 2 µg/mL (≈ 3.81 µM) in [9]; 2 µg/mL (≈ 3.81 µM) in assay [2]; 8 µg/mL (≈ 15.2 µM) in [11]; 0.5 µg/mL (≈ 0.952 µM) in assay [4]; 0.5 µg/mL (≈ 0.952 µM) in assay [5]. The outcome in [10], in [12] and in assay [13] was inactive.

As for `O=C1OCC(c2ccc(Br)cc2)=C1c1ccc(OCC(O)(Cn2cncn2)c2ccc(F)cc2F)cc1` (racemic), the MIC50 in [9] amounted to 1 µg/mL (≈ 1.76 µM); in [2], 4 µg/mL (≈ 7.04 µM); in [11], 8 µg/mL (≈ 14.1 µM); in assay [4], 2 µg/mL (≈ 3.52 µM); in [5] it was 0.5 µg/mL (≈ 0.88 µM). In addition, the result in assay [10], in assay [12] and in [13] was inactive.

Take `COc1cc(C2=C(c3ccc(Br)cc3)COC2=O)ccc1OCC(O)(Cn1cncn1)c1ccc(F)cc1F` (racemic): the result in assay [1], in assay [6], in assay [7] and in assay [8] was inactive. Further, the MIC50 in [9] came out at 8 µg/mL (≈ 13.4 µM); in assay [2], 4 µg/mL (≈ 6.68 µM); in assay [4] it was 2 µg/mL (≈ 3.34 µM); in assay [5], 1 µg/mL (≈ 1.67 µM).

On to `O=Cc1ccc(OCC(O)(Cn2cncn2)c2ccc(F)cc2F)cc1` (racemic), for which the result in assay [14], in [15] and in assay [16] was inactive. For the same molecule, the MIC50 in assay [9] turned out to be 2 µg/mL (≈ 5.57 µM); in assay [2], 4 µg/mL (≈ 11.1 µM); in [11], 16 µg/mL (≈ 44.5 µM); in [4] it was 0.5 µg/mL (≈ 1.39 µM); in assay [5] it was 0.5 µg/mL (≈ 1.39 µM).

`COc1cc(C=O)ccc1OCC(O)(Cn1cncn1)c1ccc(F)cc1F` (racemic): the outcome in [14], in assay [15] and in [16] was inactive. The MIC50 was determined as 16 µg/mL (≈ 41.1 µM) in assay [9]; 8 µg/mL (≈ 20.5 µM) in [2]; 128 µg/mL (≈ 329 µM) in assay [11]; 1 µg/mL (≈ 2.57 µM) in assay [4]; 0.5 µg/mL (≈ 1.28 µM) in assay [5].

As to `OC(Cn1cncn1)(Cn1cncn1)c1ccc(F)cc1F` [FLUCONAZOLE], the outcome in [14], in [15] and in assay [16] was inactive. Besides, the MIC50 in assay [9] came out at 2 µg/mL (≈ 6.53 µM); in assay [2], 1 µg/mL (≈ 3.27 µM); in assay [11], 32 µg/mL (≈ 104 µM); in assay [4], 1 µg/mL (≈ 3.27 µM); in assay [5], 0.25 µg/mL (≈ 0.816 µM).

What is called MIC50 is an inhibitory concentration at the 50% level, which refers to growth in some studies and to a panel of isolates in others. A lower MIC50 goes with greater potency.
